Calls of active or inactive are those of the source. No cut-off for these calls is given here.
Experiments:
CYP2C9 = CYP2C9 (Homo sapiens, UniProt P11712); assay: Inhibition of CYP2C9 at 10 uM; format: ADME
CYP1A2 = target: T1, CYP1A2 (Homo sapiens, UniProt P05177); assay: Inhibition of CYP1A2 at 10 uM; format: ADME
T1 sequence (P05177 whole entry): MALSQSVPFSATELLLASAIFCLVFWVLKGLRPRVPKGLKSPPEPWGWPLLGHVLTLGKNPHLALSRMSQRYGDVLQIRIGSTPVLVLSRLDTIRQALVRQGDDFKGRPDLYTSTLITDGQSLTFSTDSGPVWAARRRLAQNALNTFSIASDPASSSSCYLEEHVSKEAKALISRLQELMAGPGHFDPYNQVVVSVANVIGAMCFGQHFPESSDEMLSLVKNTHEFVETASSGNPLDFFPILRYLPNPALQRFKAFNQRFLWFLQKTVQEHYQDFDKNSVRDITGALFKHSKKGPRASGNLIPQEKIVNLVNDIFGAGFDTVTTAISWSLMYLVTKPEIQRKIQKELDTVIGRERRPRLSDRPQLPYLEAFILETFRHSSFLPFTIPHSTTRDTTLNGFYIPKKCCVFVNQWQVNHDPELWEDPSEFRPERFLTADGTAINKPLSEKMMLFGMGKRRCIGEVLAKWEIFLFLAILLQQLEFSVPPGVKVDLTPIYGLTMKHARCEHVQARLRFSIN

CYP2C19 = CYP2C19 (Homo sapiens, UniProt P33261); assay: Inhibition of CYP2C19 at 10 uM; format: ADME
CYP2C19, sequence (P33261 whole entry): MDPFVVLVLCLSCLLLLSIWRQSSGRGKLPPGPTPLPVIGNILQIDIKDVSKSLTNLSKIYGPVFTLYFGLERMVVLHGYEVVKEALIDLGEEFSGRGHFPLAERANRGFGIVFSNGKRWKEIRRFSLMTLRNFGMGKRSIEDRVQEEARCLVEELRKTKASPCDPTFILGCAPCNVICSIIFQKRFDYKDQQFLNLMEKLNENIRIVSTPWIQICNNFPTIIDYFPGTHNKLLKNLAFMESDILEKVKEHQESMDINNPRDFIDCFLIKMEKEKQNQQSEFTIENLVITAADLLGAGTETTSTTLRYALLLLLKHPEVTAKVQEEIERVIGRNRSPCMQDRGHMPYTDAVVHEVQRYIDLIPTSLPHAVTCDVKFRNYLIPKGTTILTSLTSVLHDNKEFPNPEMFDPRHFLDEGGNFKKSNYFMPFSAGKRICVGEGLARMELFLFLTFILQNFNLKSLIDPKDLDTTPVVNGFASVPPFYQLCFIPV

CYP2D6 = CYP2D6 (Homo sapiens, UniProt P10635); assay: Inhibition of CYP2D6 at 10 uM; format: ADME
CYP2D6, sequence (P10635 whole entry): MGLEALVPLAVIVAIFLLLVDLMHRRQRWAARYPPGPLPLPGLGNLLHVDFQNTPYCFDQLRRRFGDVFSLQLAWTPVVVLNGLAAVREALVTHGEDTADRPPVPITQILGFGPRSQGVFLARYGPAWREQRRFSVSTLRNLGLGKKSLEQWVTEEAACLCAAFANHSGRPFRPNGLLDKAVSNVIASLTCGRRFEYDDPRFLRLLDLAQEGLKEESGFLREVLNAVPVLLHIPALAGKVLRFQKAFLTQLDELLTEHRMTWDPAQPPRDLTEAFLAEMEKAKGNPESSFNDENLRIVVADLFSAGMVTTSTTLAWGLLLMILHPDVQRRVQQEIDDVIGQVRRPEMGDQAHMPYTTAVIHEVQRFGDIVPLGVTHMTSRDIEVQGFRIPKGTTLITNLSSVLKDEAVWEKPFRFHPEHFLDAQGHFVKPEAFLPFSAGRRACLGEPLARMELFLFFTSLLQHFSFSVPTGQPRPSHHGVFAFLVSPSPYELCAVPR

CYP3A4 = CYP3A4 (Homo sapiens, UniProt P08684); assay: Inhibition of CYP3A4 at 10 uM; format: ADME
CYP3A4, sequence (P08684 whole entry): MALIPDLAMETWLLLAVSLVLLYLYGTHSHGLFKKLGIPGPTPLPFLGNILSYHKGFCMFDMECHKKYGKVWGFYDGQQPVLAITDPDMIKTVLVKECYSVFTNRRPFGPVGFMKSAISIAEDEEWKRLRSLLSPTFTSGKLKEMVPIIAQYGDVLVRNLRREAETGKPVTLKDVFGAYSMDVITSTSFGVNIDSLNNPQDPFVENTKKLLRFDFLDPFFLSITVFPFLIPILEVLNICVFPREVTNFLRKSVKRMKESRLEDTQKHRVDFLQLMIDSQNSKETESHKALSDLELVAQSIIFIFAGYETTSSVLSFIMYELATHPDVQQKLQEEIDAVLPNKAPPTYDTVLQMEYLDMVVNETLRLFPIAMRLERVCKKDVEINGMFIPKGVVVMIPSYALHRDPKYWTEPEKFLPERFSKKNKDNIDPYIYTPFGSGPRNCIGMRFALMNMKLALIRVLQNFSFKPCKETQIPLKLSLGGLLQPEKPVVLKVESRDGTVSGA

[1] = Inhibition of S-nitrosoglutathione reductase expressed in Escherichia coli after 3 mins by UV/Vis spectrophotometry
Cytochrome P450 2C19 = Cytochrome P450 2C19 (Homo sapiens, UniProt P33261); assay: Inhibition of CYP2C19; format: ADME
Cytochrome P450 2C19, sequence (P33261 whole entry): as the sequence (P33261 whole entry) above

Homo sapiens = species: Homo sapiens; assay: Binding affinity to human recombinant delta2 opiate receptor by radioligand displacement assay
[2] = target: Mu-type opioid receptor (Homo sapiens) (UniProt P35372); assay: Binding affinity to human recombinant mu opioid receptor at 10 uM by radioligand displacement assay
Mu-type opioid receptor (Homo sapiens), sequence (P35372 whole entry): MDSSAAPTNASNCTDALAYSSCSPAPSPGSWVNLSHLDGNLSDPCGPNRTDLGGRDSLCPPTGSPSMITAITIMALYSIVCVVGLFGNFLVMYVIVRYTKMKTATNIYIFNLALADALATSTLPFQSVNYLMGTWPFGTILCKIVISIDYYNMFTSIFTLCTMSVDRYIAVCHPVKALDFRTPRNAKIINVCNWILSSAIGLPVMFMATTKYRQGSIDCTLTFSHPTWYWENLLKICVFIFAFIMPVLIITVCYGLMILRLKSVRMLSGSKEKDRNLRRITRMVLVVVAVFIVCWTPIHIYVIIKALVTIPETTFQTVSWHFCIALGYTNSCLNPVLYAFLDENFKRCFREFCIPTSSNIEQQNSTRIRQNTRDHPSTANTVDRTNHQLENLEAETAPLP

CYP2C9, sequence (P11712 whole entry): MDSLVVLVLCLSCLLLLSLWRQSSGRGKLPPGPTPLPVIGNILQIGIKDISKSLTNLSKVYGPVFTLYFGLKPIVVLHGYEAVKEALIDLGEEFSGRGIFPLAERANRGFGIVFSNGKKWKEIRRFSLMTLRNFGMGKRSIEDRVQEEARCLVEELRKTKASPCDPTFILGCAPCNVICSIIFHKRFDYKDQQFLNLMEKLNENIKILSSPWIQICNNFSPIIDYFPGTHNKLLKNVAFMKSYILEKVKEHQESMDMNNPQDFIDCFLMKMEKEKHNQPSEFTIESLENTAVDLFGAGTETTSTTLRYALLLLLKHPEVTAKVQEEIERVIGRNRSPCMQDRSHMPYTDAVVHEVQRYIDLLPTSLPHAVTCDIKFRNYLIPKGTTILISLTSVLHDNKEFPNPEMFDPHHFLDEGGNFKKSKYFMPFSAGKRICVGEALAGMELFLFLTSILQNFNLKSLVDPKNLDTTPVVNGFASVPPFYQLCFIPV

Structure (SMILES) | IC50 ([1]; read-out: IC50) [µM] | other results
Cc1cc(C(N)=O)ccc1-n1c(CCC(=O)O)ccc1-c1ccc(-n2ccnc2C)s1 | – | inhibition at 10 µM (CYP2C9): 15%; inhibition at 10 µM (CYP1A2): -8%; inhibition at 10 µM (CYP2C19): 25%; inhibition at 10 µM (CYP2D6): 10%; inhibition at 10 µM (CYP3A4): 27%
Cc1cc(C(N)=O)ccc1-n1c(CCC(=O)O)ccc1-c1ccc(-c2ccncc2)cc1 | 9.8 | –
Cc1cc(C(N)=O)ccc1-n1c(CCC(=O)O)ccc1-c1ccc(-n2cccc2)cc1 | 10.2 | –
Cc1cc(C(N)=O)ccc1-n1c(CCC(=O)O)ccc1-c1ccc(-n2ccnc2)nc1 | 2.3 | –
Cc1cc(C(N)=O)ccc1-n1c(CCC(=O)O)ccc1-c1ccc(-n2ccnc2)s1 | – | inhibition at 10 µM (CYP2C9): 92%; inhibition at 10 µM (CYP1A2): 77%; inhibition at 10 µM (CYP2C19): 83%; inhibition at 10 µM (CYP2D6): 96%; inhibition at 10 µM (CYP3A4): 91%
Cc1cc(C(N)=O)ccc1-n1c(CCC(=O)O)ccc1-c1ccc(N2CCOC2=O)cc1 | 53.5 | –
Cc1cc(C(N)=O)ccc1-n1c(CCC(=O)O)ccc1-c1cc(-n2ccnc2C)cs1 | – | inhibition at 10 µM (CYP2C9): 13%; inhibition at 10 µM (CYP1A2): -11%; inhibition [2]: 69%; inhibition at 10 µM (CYP2C19): 11%; inhibition at 10 µM (CYP2D6): 12%; inhibition at 10 µM (CYP3A4): 18%
Cc1cc(C(N)=O)ccc1-n1c(CCC(=O)O)ccc1-c1ccc(N2CCNCC2)cc1 | 43.9 | –
Cc1cc(C(N)=O)ccc1-n1c(CCC(=O)O)ccc1-c1ccc(-n2ccnc2C(C)C)cc1 | – | IC50 [1]: Not Active
Cc1cc(C(N)=O)ccc1-n1c(CCC(=O)O)ccc1-c1ccc(N2CCNC2=O)cc1 | 50.6 | –
Cc1cc(C(N)=O)ccc1-n1c(CCC(=O)O)ccc1-c1ccc(-n2cnnn2)cc1 | 5.19 | –
Cc1cc(C(N)=O)ccc1-n1c(CCC(=O)O)ccc1-c1ccc(-n2ccnn2)cc1 | 13.3 | –
Cc1cc(C(N)=O)ccc1-n1c(CCC(=O)O)ccc1-c1ccc(-n2cccn2)cc1 | 4.74 | –
Cc1cc(C(N)=O)ccc1-n1c(CCC(=O)O)ccc1-c1ccc(N2CCCC2)cc1 | 11.8 | –
Cc1cn(-c2ccc(-c3ccc(CCC(=O)O)n3-c3ccc(C(N)=O)cc3C)cc2)cn1 | 6.25 | –
Cc1cc(C(N)=O)ccc1-n1c(CCC(=O)O)ccc1-c1ccc(-c2cnn(C)c2)cc1 | 5.14 | –
Cc1cc(C(N)=O)ccc1-n1c(CCC(=O)O)ccc1-c1ccc(-c2cn[nH]c2)cc1 | 2.66 | –
Cc1cc(C(N)=O)ccc1-n1c(CCC(=O)O)ccc1-c1ccc(N2CCCCC2)cc1 | 8.78 | –
Cc1cc(C(N)=O)ccc1-n1c(CCC(=O)O)ccc1-c1ccc(-c2nnn[nH]2)cc1 | 1.75 | –
Cc1cc(C(N)=O)ccc1-n1c(CCC(=O)O)ccc1-c1ccc(-c2ccc(=O)[nH]c2)cc1 | 19 | –
Cc1cc(C(N)=O)ccc1-n1c(CCC(=O)O)ccc1-c1ccc(-c2cccnc2)cc1 | 23.9 | –
Cc1cc(C(N)=O)ccc1-n1c(CCC(=O)O)ccc1-c1ccc(-n2ccnc2C2CC2)cc1 | 6.96 | –
Cc1cc(C(N)=O)ccc1-n1c(CCC(=O)O)ccc1-c1ccc(-c2ccsc2)cc1 | 29.3 | –
Cc1cc(C(N)=O)ccc1-n1c(CCC(=O)O)ccc1-c1ccc(-n2ccnc2C(F)(F)F)cc1 | – | IC50 [1]: Not Active
Cc1cc(C(N)=O)ccc1-n1c(CCC(=O)O)ccc1-c1ccc(-c2ccco2)cc1 | 6.52 | –
Cc1cc(C(N)=O)ccc1-n1c(CCC(=O)O)ccc1-c1ccc(-c2ccccc2)cc1 | 6.16 | –
Cc1cc(C(N)=O)ccc1-n1c(CCC(=O)O)ccc1-c1ccc(-n2ccnc2CO)cc1 | 2.31 | –
Cc1cc(C(N)=O)ccc1-n1c(CCC(=O)O)ccc1-c1ccc(N2CCOCC2)cc1 | 8.17 | –

The next lines start with results.

IC50 ([1]; read-out: IC50) [µM] | Structure (SMILES) | other results
0.02 | Cc1cc(C(N)=O)ccc1-n1c(CCC(=O)O)ccc1-c1ccc(-n2ccnc2)cc1 [N6022] | IC50 (Cytochrome P450 2C19): 0.77 µM; Activity (Homo sapiens): inactive
0.075 | Cc1cc(C(N)=O)ccc1-n1c(CCC(=O)O)ccc1-c1ccc(-n2ccnc2C)cc1 | inhibition at 10 µM (CYP2C9): 20%; inhibition at 10 µM (CYP1A2): 11%; inhibition at 10 µM (CYP2C19): 55%; inhibition at 10 µM (CYP2D6): 11%; inhibition at 10 µM (CYP3A4): 31%
0.51 | Cc1cc(C(N)=O)ccc1-n1c(CCC(=O)O)ccc1-c1ccc(-c2ccoc2)cc1 | –
0.76 | Cc1cc(C(N)=O)ccc1-n1c(CCC(=O)O)ccc1-c1ccc(-c2cncs2)cc1 | –
0.026 | Cc1cc(C(N)=O)ccc1-n1c(CCC(=O)O)ccc1-c1cc(-n2ccnc2)cs1 | –
1.57 | Cc1cc(C(N)=O)ccc1-n1c(CCC(=O)O)ccc1-c1cnc(-n2ccnc2)s1 | –
0.15 | Cc1cc(C(N)=O)ccc1-n1c(CCC(=O)O)ccc1-c1cnc(-n2ccnc2)nc1 | –
0.048 | CCc1nccn1-c1ccc(-c2ccc(CCC(=O)O)n2-c2ccc(C(N)=O)cc2C)s1 | –
0.68 | Cc1cc(C(N)=O)ccc1-n1c(CCC(=O)O)ccc1-c1ccc(-c2ccnn2C)cc1 | –
1.48 | Cc1cc(C(N)=O)ccc1-n1c(CCC(=O)O)ccc1-c1ccc(-n2cnnc2)cc1 | –
0.048 | Cc1cc(C(N)=O)ccc1-n1c(CCC(=O)O)ccc1-c1csc(-n2ccnc2C)c1 | –
0.36 | Cc1cc(C(N)=O)ccc1-n1c(CCC(=O)O)ccc1-c1ccc(-n2ccnc2)cn1 | –
0.9 | Cc1cc(C(N)=O)ccc1-n1c(CCC(=O)O)ccc1-c1ccc(-n2ccnc2)o1 | –
0.13 | CCc1nccn1-c1ccc(-c2ccc(CCC(=O)O)n2-c2ccc(C(N)=O)cc2C)cc1 | inhibition at 10 µM (CYP2C9): 15%; inhibition at 10 µM (CYP1A2): 6%; inhibition at 10 µM (CYP2C19): 25%; inhibition at 10 µM (CYP2D6): 20%; inhibition at 10 µM (CYP3A4): 27%

Reference: ChEMBL document CHEMBL1833839, “Discovery of potent and novel S-nitrosoglutathione reductase inhibitors devoid of cytochrome P450 activities” (Bioorg Med Chem Lett, 2011)
